Data: patent US20060069132A1, “Azolecarboxamide herbicides” (priority 2004, published 2006)
Where two headings read alike, the source gives them in different places.

Experiments:
eastern black nightshade = test: Test C pre-/postemergence herbicide test; assay type: in vivo, Solanum ptycanthum
Procedure, shortened: (§1)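 Pre- and postemergence application, solvent/surfactant formulation; post at 1- to 4-leaf stage (2–18 cm). Greenhouse 12–14 d. Visual rating vs controls, 0 = no effect, 100 = complete control.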

lambsquarters = test: Test C pre-/postemergence herbicide test; assay type: in vivo, Chenopodium album
Procedure, shortened: as §1

barnyardgrass = test: Test A pre-/postemergence herbicide test; assay type: in vivo, Echinochloa crus-galli; conditions: Echinochloa crus-galli, 240 h; for pest or weed control at 500 g/ha: 500 g ai/ha; for pest or weed control at 2000 g/ha: 2000 g ai/ha
Procedure, shortened: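 Visual injury rating on a 0–100 scale (0 no effect, 100 complete control) versus untreated controls, about ten days after treatment in greenhouse. Pre: directed soil spray onto seeded sandy loam. Post: spray to runoff on plants 2–10 cm tall at one- to two-leaf stage.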

johnsongrass = test: Test C pre-/postemergence herbicide test; assay type: in vivo, Sorghum halepense
Procedure, shortened: as §1

woolly cupgrass = test: Test C pre-/postemergence herbicide test; assay type: in vivo, Eriochloa villosa
Procedure, shortened: as §1

corn = test: Test C pre-/postemergence herbicide test; assay type: in vivo, Zea mays
Procedure, shortened: as §1

Surinam grass = test: Test C pre-/postemergence herbicide test; assay type: in vivo, Urochloa decumbens
Procedure, shortened: as §1

cocklebur = test: Test C pre-/postemergence herbicide test; assay type: in vivo, Xanthium strumarium
Procedure, shortened: as §1

rice = test: Test C flooded paddy test; assay type: in vivo, Oryza sativa; conditions: Oryza sativa
Procedure, shortened: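 Plants were grown to the 1- to 4-leaf stage (2–18 cm) and then treated postemergence, or grown to the 2-leaf stage for the flooded paddy test. They were held in a greenhouse for 12 to 14 days and then scored by eye against controls, where 0 is no effect and 100 is complete control.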

[1] = system: common (oilseed) sunflower; test: Test C pre-/postemergence herbicide test; assay type: in vivo, Helianthus annuus
Procedure, shortened: as §1

kochia = test: Test C pre-/postemergence herbicide test; assay type: in vivo, Kochia scoparia
Procedure, shortened: as §1

[2] = Preemergence, 500 g ai/ha, scale 0 to 100, 0 no effect, 100 complete control
[3] = post-emergence, Postemergence, 0 to 100 scale, 0 no effect, 100 complete control, read-out: Plant response rating, Barnyardgrass

SMILES: CCn1nc(C(C)(C)C)cc1C(=O)Nc1cc(C(=O)N(C)C)ccc1F [Compound 6, N-[5-[(dimethylamino)carbonyl]-2-fluorophenyl]-3-(1,1-dimethylethyl)-1-ethyl-1H-pyrazole-5-carboxamide]
- Plant response rating (0 = no effect, 100 = complete control), Nightshade (eastern black nightshade; 62 g ai/ha, preemergence): 100
- Nightshade plant response rating (eastern black nightshade; [2]): 100
- pest or weed control at 250 g/ha (eastern black nightshade; pre-emergence, 250 g ai/ha, scale 0 to 100 (0 no effect, 100 complete control), visual, 12 to 14 days, read-out: Plant response rating, Nightshade): 100%
- Plant response rating (0 = no effect, 100 = complete control), Lambsquarters (lambsquarters; 62 g ai/ha, preemergence): 100
- pest or weed control at 125 g/ha (lambsquarters; Chenopodium album, pre-emergence, 125 g ai/ha, scale 0-100, read-out: Plant response rating, Lambsquarters): 100%
- pest or weed control at 250 g/ha (lambsquarters; Chenopodium album, pre-emergence, 250 g ai/ha, scale 0 to 100 (0 no effect, 100 complete control), visual, 12 to 14 days, read-out: Plant response rating, Lambsquarters): 100%
- Lambsquarters plant response rating (lambsquarters; [2]): 100
- pest or weed control at 500 g/ha (barnyardgrass; [3]): 80%
- pest or weed control at 2000 g/ha (barnyardgrass; [3]): 90%
- pest or weed control at 500 g/ha (barnyardgrass; pre-emergence, Preemergence, visual rating, 0 to 100 scale (0 no effect, 100 complete control), read-out: Barnyardgrass plant response rating): 100%
- pest or weed control at 2000 g/ha (barnyardgrass; pre-emergence, Preemergence, 0 to 100 scale, 0 no effect, 100 complete control, read-out: Barnyardgrass plant response rating): 100%
- Plant response rating (0 = no effect, 100 = complete control), Johnsongrass (johnsongrass; 62 g ai/ha, preemergence): 70
- Johnsongrass plant response rating (johnsongrass; [2]): 100
- pest or weed control at 125 g/ha (johnsongrass; Sorghum halepense, pre-emergence, 125 g ai/ha, scale 0-100, read-out: Plant response rating, Johnsongrass): 90%
- pest or weed control at 250 g/ha (johnsongrass; Sorghum halepense, pre-emergence, 250 g ai/ha, scale 0 to 100 (0 no effect, 100 complete control), visual, 12 to 14 days, read-out: Plant response rating, Johnsongrass): 90%
- Plant response rating (0 = no effect, 100 = complete control), Cupgrass, Woolly (woolly cupgrass; 62 g ai/ha, preemergence): 50
- pest or weed control at 125 g/ha (woolly cupgrass; Eriochloa villosa, pre-emergence, 312 h, 125 g ai/ha, scale 0-100, read-out: Plant response rating, Cupgrass, Woolly): 55%
- pest or weed control at 250 g/ha (woolly cupgrass; Eriochloa villosa, pre-emergence, 312 h, 250 g ai/ha, scale 0 to 100 (0 no effect, 100 complete control), visual, 12 to 14 days, read-out: Plant response rating, Cupgrass, Woolly): 75%
- Cupgrass, Woolly plant response rating (woolly cupgrass; [2]): 75
- Plant response rating (0 = no effect, 100 = complete control), Corn (corn; 62 g ai/ha, preemergence): 60
- Corn plant response rating (corn; [2]): 80
- Corn plant response rating (crop injury, 0 = no effect, 100 = complete kill) at 125 g/ha (corn; Zea mays, pre-emergence, 312 h, 125 g ai/ha, scale 0-100): 60%
- Corn plant response rating (crop injury, 0 = no effect, 100 = complete kill) at 250 g/ha (corn; Zea mays, pre-emergence, 312 h, 250 g ai/ha, scale 0 to 100 (0 no effect, 100 complete control), visual, 12 to 14 days): 80%
- Plant response rating (0 = no effect, 100 = complete control), Surinam Grass (Surinam grass; 62 g ai/ha, preemergence): 85
- Surinam Grass plant response rating (Surinam grass; [2]): 100
- pest or weed control at 250 g/ha (Surinam grass; Urochloa decumbens, pre-emergence, 312 h, 250 g ai/ha, scale 0 to 100 (0 no effect, 100 complete control), visual, 12 to 14 days, read-out: Plant response rating, Surinam Grass): 100%
- Plant response rating (0 = no effect, 100 = complete control), Cocklebur (cocklebur; 62 g ai/ha, preemergence): 60
- pest or weed control at 125 g/ha (cocklebur; Xanthium strumarium, pre-emergence, 312 h, 125 g ai/ha, scale 0-100, read-out: Plant response rating, Cocklebur): 100%
- pest or weed control at 250 g/ha (cocklebur; Xanthium strumarium, pre-emergence, 312 h, 250 g ai/ha, scale 0 to 100 (0 no effect, 100 complete control), visual, 12 to 14 days, read-out: Plant response rating, Cocklebur): 100%
- pest or weed control at 500 g/ha (cocklebur; Xanthium strumarium, pre-emergence, 312 h, Preemergence, 500 g ai/ha, scale 0 to 100, 0 no effect, 100 complete control, read-out: Cocklebur plant response rating): 100%
- plant injury at 62 g/ha (rice; 62 g ai/ha, scale 0 to 100 (0 no effect, 100 complete control), read-out: Rice plant response rating): 40%
- plant injury at 125 g/ha (rice; 125 g ai/ha, scale of 0 to 100, 0 is no effect, 100 is complete control, read-out: Rice plant response rating): 80%
- plant injury at 250 g/ha (rice; 250 g ai/ha, visual rating after 12 to 14 days, scale 0 to 100 (0 no effect, 100 complete control), read-out: Plant response rating, Rice): 80%
- plant injury at 500 g/ha (rice; 500 g ai/ha, visual rating after 12 to 14 days, scale 0 to 100 (0 no effect, 100 complete control), read-out: Plant response rating, Rice): 90%
- Plant response rating (0 = no effect, 100 = complete control), Sunflower ([1]; 62 g ai/ha, preemergence): 0
- pest or weed control at 250 g/ha ([1]; Helianthus annuus, pre-emergence, 250 g ai/ha, scale 0 to 100 (0 no effect, 100 complete control), visual, 12 to 14 days, read-out: Plant response rating, Sunflower): 100%
- Sunflower plant response rating [1, 2]: 100
- Plant response rating (0 = no effect, 100 = complete control), Kochia (kochia; 62 g ai/ha, preemergence): 100
- pest or weed control at 125 g/ha (kochia; Bassia scoparia, pre-emergence, 125 g ai/ha, scale 0-100, read-out: Plant response rating, Kochia): 100%
- pest or weed control at 250 g/ha (kochia; Bassia scoparia, pre-emergence, 250 g ai/ha, scale 0 to 100 (0 no effect, 100 complete control), visual, 12 to 14 days, read-out: Plant response rating, Kochia): 100%
- Kochia plant response rating (kochia; [2]): 100
